# Experimental data published in publication PMC9271885 (eBioMedicine, 2022).
# Where two headings read alike, the source gives them in different places.
# Experiments:
# SARS-CoV-2 [1] = test: microbe, parasite or virus in culture; format: cell-based; details: Vero E6 cells, viral RNA, 2 days incubation; for EC50: read-out: EC50
# SARS-CoV-2 [2] = test: microbe, parasite or virus in culture; format: cell-based; details: Severe acute respiratory syndrome coronavirus 2, 48 h; Caco-2 cells, viral RNA, 2 days incubation
# in vitro = test: in vitro
# Protocol: One day prior to infection, 96-well culture plates were seeded with 5×10^4 Vero E6 or Caco-2 cells in 100µL assay medium per well (containing 2.5% FCS). […] After 15min, a preset amount of virus diluted in 25µL of assay medium was added to the wells. This quantity of virus was calibrated so that the viral replication was still in the exponential growth phase for the readout, as previously described, [28], [29] which correspond here to 150 TCID50 per well. Four “cell control” wells were supplemented with 50µL of assay medium without any compounds or virus. On each culture plate, a positive control compound (Remdesivir, BLDpharm) was added in duplicate with eight 2-fold serial dilutions (0.16µM to 20µM). Plates were incubated for 2 days at 37°C prior to quantification of the viral genome by real-time RT-PCR as described below. For the determination of the 50% cytotoxic concentrations (CC50; compound concentration required to reduce by 50% cell viability), the same culture conditions were used, without addition of the virus, and cell viability was measured using CellTiter Blue® (Promega) following manufacturer's instructions. EC50, EC90 and CC50 were determined using logarithmic interpolation as previously described.[28] The selectivity index of the compounds was calculated as the ratio of the CC50 over the EC50.
# [3] = Population pharmacokinetic modelling and simulation of TIZ in hamster (LC-MS/MS, NONMEM); details: in vivo
# Protocol: At each time point, approximate 80µl of blood were collected from the submandibular vein or the saphenous vein of hamsters. All samples were transferred into commercial K2-EDTA tubes, placed on ice until processed for plasma extraction by centrifugation and stored at −70°C before analysis. A LC-MS/MS-AI Triple Quad 5500 was used to determine TIZ concentrations. The mobile phase was a gradient of 0.1% formic acid (FA) in water and 0.1% of FA in acetonitrile (ACN), the column was an ACQUITY UPLC HSS T3 1.8 μm 2.1 × 50mm. For mass spectrometry a positive electrospray ionization was used, and a selected reaction monitoring was set to select TIZ: [M+H]+m/z: 266.0 / 121.2 and dexamethasone: [M+H]+m/z: 393.0 / 373.1 as internal standard.
# Pharmacokinetic profiles of TIZ in hamster were analyzed using a nonlinear mixed-effects modelling approach. The population pharmacokinetics analysis was performed using NONMEM® version 7.4. The final pharmacokinetic model was established by evaluating one-, two-, and three-compartment disposition models, as well as several different absorption models (i.e. first-order absorption, first-order absorption with lag time, and transit absorption models). The inter-individual variabilities of pharmacokinetic parameters were implemented as a log-normal distribution and the residual unexplained variability was modelled as an exponential error.
# [4] = Severe acute respiratory syndrome coronavirus 2, Vero C1008, 48 h
structure (smiles),measurement,setting,value
"CC(=O)Oc1ccccc1C(=O)Nc1ncc([N+](=O)[O-])s1 [NTZ, Nitazoxanide]",EC90,SARS-CoV-2 [1]; [4],10.3 µM
same,EC50,SARS-CoV-2 [1]; [4],3.19 µM
same,EC50,SARS-CoV-2 [1],< 5 µM
same,EC90,SARS-CoV-2 [2],1.75 µM
same,CC50 at 2 days,"in vitro; African green monkey, CC50, Vero E6 cells, no virus",> 60 µM
same,CC50 at 2 days,in vitro; human,9.15 µM
same,"V/F volume of distribution of the central compartment, population estimate (%RSE)",[3],0.128 (48.3) L
same,"CL/F oral clearance, population estimate (%RSE)",[3]; po,0.651 (11.9) L/h
